# Measured values: the supplement of paper PMC10307832
# Key:
# Experiment in all cases: relative viability (nuclei count vs DMSO), 5 days (fraction); higher = more cells survive
# Adavosertib + Pemetrexed = compound: C=CCn1c(=O)c2cnc(Nc3ccc(N4CCN(C)CC4)cc3)nc2n1-c1cccc(C(C)(C)O)n1 [Adavosertib] + Nc1nc2[nH]cc(CCc3ccc(C(=O)N[C@@H](CCC(=O)O)C(=O)O)cc3)c2c(=O)[nH]1 [Pemetrexed] (partner 0.2 µM)
# How it was run: (§1)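 Five library-drug doses in √10 steps were combined with a fixed anchor-drug dose, or a single drug was given alone, by pin tool to lung cancer cell lines in 1536-well plates the day after seeding. Nuclei were stained and counted after 5 days. Relative viability is the nuclei count in treated wells over that in vehicle wells, taken as the median of duplicate plates.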
# Nelarabine + Decitabine = compound: COc1nc(N)nc2c1ncn2[C@@H]1O[C@H](CO)[C@@H](O)[C@@H]1O [Nelarabine] + Nc1ncn([C@H]2C[C@H](O)[C@@H](CO)O2)c(=O)n1 [Decitabine] (partner 2 µM)
# How it was run: as §1
# Nelarabine + Alpelisib = compound: COc1nc(N)nc2c1ncn2[C@@H]1O[C@H](CO)[C@@H](O)[C@@H]1O [Nelarabine] + Cc1nc(NC(=O)N2CCC[C@H]2C(N)=O)sc1-c1ccnc(C(C)(C)C(F)(F)F)c1 [Alpelisib] (partner 2 µM)
# How it was run: as §1
# [1] = compound: C=CCn1c(=O)c2cnc(Nc3ccc(N4CCN(C)CC4)cc3)nc2n1-c1cccc(C(C)(C)O)n1 [Adavosertib] + CC(=O)c1c(C)c2cnc(Nc3ccc(N4CCNCC4)cn3)nc2n(C2CCCC2)c1=O [Palbociclib] (partner 0.5 µM)
# How it was run: as §1
cell line,measurement,setting,value
NCI-H2087,relative viability,Adavosertib + Pemetrexed; first compound 0.01 µM,0.644
same,relative viability,Adavosertib + Pemetrexed; first compound 0.03162 µM,0.634
same,relative viability,Adavosertib + Pemetrexed; first compound 0.1 µM,0.67
same,relative viability,Adavosertib + Pemetrexed; first compound 0.3162 µM,0.644
same,relative viability,Nelarabine + Decitabine; first compound 0.01 µM,0.248
same,relative viability,Nelarabine + Decitabine; first compound 0.03162 µM,0.28
same,relative viability,Nelarabine + Decitabine; first compound 0.1 µM,0.309
same,relative viability,Nelarabine + Decitabine; first compound 0.3162 µM,0.335
same,relative viability,Nelarabine + Decitabine; first compound 1 µM,0.3
same,relative viability,Nelarabine + Alpelisib; first compound 0.01 µM,1.19
same,relative viability,Nelarabine + Alpelisib; first compound 0.03162 µM,1.13
same,relative viability,Nelarabine + Alpelisib; first compound 0.1 µM,0.986
same,relative viability,Nelarabine + Alpelisib; first compound 0.3162 µM,0.969
same,relative viability,Nelarabine + Alpelisib; first compound 1 µM,1.07
same,relative viability,[1]; first compound 0.01 µM,0.218
same,relative viability,[1]; first compound 0.03162 µM,0.217
same,relative viability,[1]; first compound 0.1 µM,0.263
same,relative viability,[1]; first compound 0.3162 µM,0.243
EKVX,relative viability,Adavosertib + Pemetrexed; first compound 0.01 µM,0.426
same,relative viability,Adavosertib + Pemetrexed; first compound 0.03162 µM,0.374
same,relative viability,Adavosertib + Pemetrexed; first compound 0.1 µM,0.309
same,relative viability,Adavosertib + Pemetrexed; first compound 0.3162 µM,0.362
same,relative viability,Nelarabine + Decitabine; first compound 0.01 µM,0.373
same,relative viability,Nelarabine + Decitabine; first compound 0.03162 µM,0.266
same,relative viability,Nelarabine + Decitabine; first compound 0.1 µM,0.356
same,relative viability,Nelarabine + Decitabine; first compound 0.3162 µM,0.292
same,relative viability,Nelarabine + Decitabine; first compound 1 µM,0.571
same,relative viability,Nelarabine + Alpelisib; first compound 0.01 µM,0.958
same,relative viability,Nelarabine + Alpelisib; first compound 0.03162 µM,0.772
same,relative viability,Nelarabine + Alpelisib; first compound 0.1 µM,0.717
same,relative viability,Nelarabine + Alpelisib; first compound 0.3162 µM,1.04
same,relative viability,Nelarabine + Alpelisib; first compound 1 µM,0.832
same,relative viability,[1]; first compound 0.01 µM,0.365
same,relative viability,[1]; first compound 0.03162 µM,0.354
same,relative viability,[1]; first compound 0.1 µM,0.344
same,relative viability,[1]; first compound 0.3162 µM,0.5
NCI-H1975,relative viability,Adavosertib + Pemetrexed; first compound 0.01 µM,0.263
same,relative viability,Adavosertib + Pemetrexed; first compound 0.03162 µM,0.268
same,relative viability,Adavosertib + Pemetrexed; first compound 0.1 µM,0.209
same,relative viability,Adavosertib + Pemetrexed; first compound 0.3162 µM,0.213
same,relative viability,Nelarabine + Decitabine; first compound 0.01 µM,0.391
same,relative viability,Nelarabine + Decitabine; first compound 0.03162 µM,0.336
same,relative viability,Nelarabine + Decitabine; first compound 0.1 µM,0.426
same,relative viability,Nelarabine + Decitabine; first compound 0.3162 µM,0.418
same,relative viability,Nelarabine + Decitabine; first compound 1 µM,0.431
same,relative viability,Nelarabine + Alpelisib; first compound 0.01 µM,0.785
same,relative viability,Nelarabine + Alpelisib; first compound 0.03162 µM,0.489
same,relative viability,Nelarabine + Alpelisib; first compound 0.1 µM,0.73
same,relative viability,Nelarabine + Alpelisib; first compound 0.3162 µM,0.773
same,relative viability,Nelarabine + Alpelisib; first compound 1 µM,0.764
same,relative viability,[1]; first compound 0.01 µM,0.551
same,relative viability,[1]; first compound 0.03162 µM,0.559
same,relative viability,[1]; first compound 0.1 µM,0.488
same,relative viability,[1]; first compound 0.3162 µM,0.608
NCI-H520,relative viability,Adavosertib + Pemetrexed; first compound 0.01 µM,0.762
same,relative viability,Adavosertib + Pemetrexed; first compound 0.03162 µM,0.686
same,relative viability,Adavosertib + Pemetrexed; first compound 0.1 µM,0.616
same,relative viability,Adavosertib + Pemetrexed; first compound 0.3162 µM,0.297
same,relative viability,Nelarabine + Decitabine; first compound 0.01 µM,0.566
same,relative viability,Nelarabine + Decitabine; first compound 0.03162 µM,0.44
same,relative viability,Nelarabine + Decitabine; first compound 0.1 µM,0.512
same,relative viability,Nelarabine + Decitabine; first compound 0.3162 µM,0.617
same,relative viability,Nelarabine + Decitabine; first compound 1 µM,0.485
same,relative viability,Nelarabine + Alpelisib; first compound 0.01 µM,1.16
same,relative viability,Nelarabine + Alpelisib; first compound 0.03162 µM,0.924
same,relative viability,Nelarabine + Alpelisib; first compound 0.1 µM,1.16
same,relative viability,Nelarabine + Alpelisib; first compound 0.3162 µM,1.03
same,relative viability,Nelarabine + Alpelisib; first compound 1 µM,1.1
same,relative viability,[1]; first compound 0.01 µM,0.22
same,relative viability,[1]; first compound 0.03162 µM,0.214
same,relative viability,[1]; first compound 0.1 µM,0.229
same,relative viability,[1]; first compound 0.3162 µM,0.246
NCI-H647,relative viability,Adavosertib + Pemetrexed; first compound 0.01 µM,0.155
same,relative viability,Adavosertib + Pemetrexed; first compound 0.03162 µM,0.159
same,relative viability,Adavosertib + Pemetrexed; first compound 0.1 µM,0.141
same,relative viability,Adavosertib + Pemetrexed; first compound 0.3162 µM,0.123
same,relative viability,Nelarabine + Decitabine; first compound 0.01 µM,0.483
same,relative viability,Nelarabine + Decitabine; first compound 0.03162 µM,0.385
same,relative viability,Nelarabine + Decitabine; first compound 0.1 µM,0.381
same,relative viability,Nelarabine + Decitabine; first compound 0.3162 µM,0.357
same,relative viability,Nelarabine + Decitabine; first compound 1 µM,0.38
same,relative viability,Nelarabine + Alpelisib; first compound 0.01 µM,1.2
same,relative viability,Nelarabine + Alpelisib; first compound 0.03162 µM,0.705
same,relative viability,Nelarabine + Alpelisib; first compound 0.1 µM,1.12
same,relative viability,Nelarabine + Alpelisib; first compound 0.3162 µM,1.56
same,relative viability,Nelarabine + Alpelisib; first compound 1 µM,1.19
same,relative viability,[1]; first compound 0.01 µM,0.408
same,relative viability,[1]; first compound 0.03162 µM,0.461
same,relative viability,[1]; first compound 0.1 µM,0.261
same,relative viability,[1]; first compound 0.3162 µM,0.316
NCI-H1755,relative viability,Adavosertib + Pemetrexed; first compound 0.01 µM,0.419
same,relative viability,Adavosertib + Pemetrexed; first compound 0.03162 µM,0.43
same,relative viability,Adavosertib + Pemetrexed; first compound 0.1 µM,0.43
same,relative viability,Adavosertib + Pemetrexed; first compound 0.3162 µM,0.392
same,relative viability,Nelarabine + Decitabine; first compound 0.01 µM,0.706
same,relative viability,Nelarabine + Decitabine; first compound 0.03162 µM,0.811
same,relative viability,Nelarabine + Decitabine; first compound 0.1 µM,0.734
same,relative viability,Nelarabine + Decitabine; first compound 0.3162 µM,0.639
same,relative viability,Nelarabine + Decitabine; first compound 1 µM,0.737
same,relative viability,Nelarabine + Alpelisib; first compound 0.01 µM,1.13
same,relative viability,Nelarabine + Alpelisib; first compound 0.03162 µM,0.879
same,relative viability,Nelarabine + Alpelisib; first compound 0.1 µM,0.984
same,relative viability,Nelarabine + Alpelisib; first compound 0.3162 µM,1.15
same,relative viability,Nelarabine + Alpelisib; first compound 1 µM,1.08
same,relative viability,[1]; first compound 0.01 µM,0.449
same,relative viability,[1]; first compound 0.03162 µM,0.41
same,relative viability,[1]; first compound 0.1 µM,0.443
same,relative viability,[1]; first compound 0.3162 µM,0.446
SK-LU-1,relative viability,Adavosertib + Pemetrexed; first compound 0.01 µM,1.03
same,relative viability,Adavosertib + Pemetrexed; first compound 0.03162 µM,0.967
same,relative viability,Adavosertib + Pemetrexed; first compound 0.1 µM,0.812
same,relative viability,Adavosertib + Pemetrexed; first compound 0.3162 µM,0.536
same,relative viability,Nelarabine + Decitabine; first compound 0.01 µM,0.815
same,relative viability,Nelarabine + Decitabine; first compound 0.03162 µM,0.574
same,relative viability,Nelarabine + Decitabine; first compound 0.1 µM,0.638
same,relative viability,Nelarabine + Decitabine; first compound 0.3162 µM,0.822
same,relative viability,Nelarabine + Decitabine; first compound 1 µM,0.597
same,relative viability,Nelarabine + Alpelisib; first compound 0.01 µM,1.36
same,relative viability,Nelarabine + Alpelisib; first compound 0.03162 µM,0.608
same,relative viability,Nelarabine + Alpelisib; first compound 0.1 µM,0.87
same,relative viability,Nelarabine + Alpelisib; first compound 0.3162 µM,1.22
same,relative viability,Nelarabine + Alpelisib; first compound 1 µM,1
same,relative viability,[1]; first compound 0.01 µM,0.405
same,relative viability,[1]; first compound 0.03162 µM,0.467
same,relative viability,[1]; first compound 0.1 µM,0.398
same,relative viability,[1]; first compound 0.3162 µM,0.342
LXF-289,relative viability,Adavosertib + Pemetrexed; first compound 0.01 µM,0.914
same,relative viability,Adavosertib + Pemetrexed; first compound 0.03162 µM,0.931
same,relative viability,Adavosertib + Pemetrexed; first compound 0.1 µM,0.856
same,relative viability,Adavosertib + Pemetrexed; first compound 0.3162 µM,0.722
same,relative viability,Nelarabine + Decitabine; first compound 0.01 µM,0.43
same,relative viability,Nelarabine + Decitabine; first compound 0.03162 µM,0.414
same,relative viability,Nelarabine + Decitabine; first compound 0.1 µM,0.379
same,relative viability,Nelarabine + Decitabine; first compound 0.3162 µM,0.39
same,relative viability,Nelarabine + Decitabine; first compound 1 µM,0.37
same,relative viability,Nelarabine + Alpelisib; first compound 0.01 µM,1.19
same,relative viability,Nelarabine + Alpelisib; first compound 0.03162 µM,1.05
same,relative viability,Nelarabine + Alpelisib; first compound 0.1 µM,1.01
same,relative viability,Nelarabine + Alpelisib; first compound 0.3162 µM,1.11
same,relative viability,Nelarabine + Alpelisib; first compound 1 µM,1.05
same,relative viability,[1]; first compound 0.01 µM,0.576
same,relative viability,[1]; first compound 0.03162 µM,0.619
same,relative viability,[1]; first compound 0.1 µM,0.656
same,relative viability,[1]; first compound 0.3162 µM,0.735
